A short description of experiment [1]: Kinetics of the conversion of peroxynitrite into nitrate by UV spectrometry (stopped flow, 301 nm). The experiment is classed as biochemical. To be noted: peroxynitrite rearrangement relative to spontaneous decomposition without catalyst; catalyst added in one-tenth the stoichiometric amount; UV 301 nm. As for the experimental part: Measurement of the Kinetics of the Conversion of Peroxynitrite into Nitrate by UV Spectrometry
The following are used: a UV spectrometer • a stopped flow device with slotted-on cuvette laboratory apparatus for volumetric work reagents (buffers, peroxynitrite solution, catalysts)
The peroxynitrite content of the concentrated peroxynitrite solution is determined. A molar extinction coefficient of ε=1 670 is used as basis. The solution is diluted with water to reach an absorption of about 1.6 at the observation wavelength of 301 nm. The pH of the stock solution produced in this way should not fall below 11.
A solution of the catalyst to be investigated is prepared in phosphate buffer appropriate for the peroxynitrite concentration set, in such a way that, taking account of the given conditions in the stopped flow device, the desired amounts of catalyst solution and peroxynitrite can be brought together for reaction. The buffer of the catalyst solution must have sufficient capacity for it to be possible for the peroxynitrite solution, which is still strongly alkaline, to be adjusted to, and maintained at, the desired pH. The catalysts are added in one-tenth the stoichiometric amount (FIG. 1).
The metering syringes of the stopped flow system are charged with the two solutions and used to charge the cuvette which is present in the UV spectrometer. The absorptions at 301 nm are measured simultaneously. The rearrangement of peroxynitrite to nitrate results in the decrease in the absorption, which assumes a constant value after some time. The rearrangement is complete at this time, and the data recording is stopped.
The measured data are analyzed, and the peroxynitrite concentration can be calculated from the characteristic kinetic data of the plot resulting therefrom. […] In order to take account of the spontaneous decomposition of peroxynitrite, for each peroxynitrite preparation used initially the decomposition behavior of the peroxynitrite solution is found on addition of the buffer without catalyst content, and the relation between the characteristic data thereof and those obtained from a measurement with catalyst is found. [formula]

A short description of experiment [2]: DHR oxidation assay (oxidation of dihydrorhodamine to rhodamine by peroxynitrite). The format is biochemical. To be noted: rhodamine fluorescence 485/520 nm, neutral pH. The procedure:
Oxidation of Dihydrorhodamine to Rhodamine
The concentration of peroxynitrite is determined by reaction with dihydrorhodamine (DHR) to give rhodamine. The rhodamine fluorescence emission is measured at 520 nm after excitation with light of a wavelength of 485 nm. Catalytic conversion of peroxynitrite by a test substance leads to a decrease in the peroxynitrite concentration and thus also to a decrease in the rhodamine fluorescence, because less DHR can be converted into rhodamine. The search for peroxynitrite-degrading catalysts is carried out at neutral pH. Peroxynitrite is stable for only a few seconds at neutral pH. It is therefore necessary for peroxynitrite to be kept alkaline until contacted with the test substance and DHR as detection reagent. The search for catalysts takes place by rapid mixing of the following components:
10 μl of 10 μM DHR; • 100 μm diethylenetriaminepentaacetic acid in 75 mM Na phosphate buffer at pH 5.6
5 μl of peroxynitrite in 9 mM NaOH
0.75 μl test substance in 30% DMSO/H2O
The measurement takes place in a standard microtiter plate fluorescence measuring apparatus

For experiment [3], the system named is primary neuronal cultures from neonatal rat cerebellum. The experiment is described as follows: SIN-1 damage assay with primary neuronal cultures from neonatal rat cerebellum (Cytotoxicity assay). The experiment is classed as cell-based. To be noted: protection against SIN-1 damage, test substance 1 h before SIN-1, Alamar blue readout, read-out: Cytotoxicity assay ED50. From the text:
SIN-1 Damage Assay with Primary Neuronal Cultures from Neonatal Rat Cerebellum
A primary culture of cells from neonatal rat cerebellum is set up for in vitro testing of substances for neuroprotection against damage induced by peroxy-nitrite. The measurement of cell death or survival of neurons in this culture takes place indirectly through a measurement of the conversion of the dye Alamar blue into its reduced fluorescent form. The peroxynitrite donor SIN-1 (3-morpholinosydnonimine) is used for the damage.
To obtain the cells, Wistar rats (P8) are sacrificed by decapitation, the cerebella are obtained, the meninges are removed from the cerebellum (HBSS (GIBCO, 14025-050) 4° C.), cut up and transferred into a 15 ml Falcon tube, the supernatant is aspirated off, and then the cerebella are trypsinized by adding 500 μl of trypsin/EDTA solution (GIBCO #2530-054)/cerebellum. After incubation (20 min, 37° C.), the trypsinized cerebella are washed 3× with 10 ml of HBSS. This is followed by tritration by addition of 500 μl of 0.05% strength DNAsel (BOEHRINGER MANNHEIM, #14953000) per cerebellum. Using a 5 ml pipette, then a flame-polished Pasteur pipette and finally (if necessary) a drawn-out flame-polished Pasteur pipette, the cells are isolated and mixed with 10 ml of complete medium (100 ml of Neurobasal (GIBCO #21103-049), 1 ml of B27 supplement (GIBCO #17504-044), 0.4 ml of pen/strep (10 000 IU/ml/10 000 UG/ml) (GIBCO #15140-160), 0.8 ml of KCl stock solution (MERCK, 1.04936.0500), 1 ml of L-glutamine (100×-200 mM) (GIBCO #15140-106). The isolated cells are then centrifuged (10 min at 600 rpm), washed 1× with complete medium and resuspended in 20 ml of complete medium, counted and diluted to 2×10^6 ml. 100 μl of complete medium are introduced into each well of a 96-well microtiter plate, and 100 μl of cell suspension are added (=day 1 in vitro). The microtiter plates are previously coated in the following way: 50 μl of poly-L-lysine (MW 70-105 kD) (SIGMA #P-6282) are applied to each well, and the plates are then incubated in an incubator for about 90 min. Before the cells are plated out, the solution is aspirated off again and washed 2× with HBSS and with sterile double-distilled water. 24 h after plating out, the cells are damaged by addition of SIN-1. Test substances are applied 1 h before addition of SIN-1 (single concentration of 10 or 30 μm, or as concentration series, CALBIOCHEM, 567028). Cell function is measured on day 2 (day2 in vitro) with Alamar blue (10 μl/well) (BIOSOURCE INT., DAL1100). Incubation for 3 hours is followed by measurement in a fluorescence reader (Victor, Wallac, extinction 544 nm/emission 590 nm). IC50 values are calculated by the Excel plug-in XLfit.
A general note: Alamar Blue is a resazurin reagent that responds to reducing activity.

The IC50 is the concentration that gives 50% inhibition.

The compound `CN(C)c1ccc(NS(=O)(=O)c2cccs2)c([N+](=O)[O-])c1` [Example 8, thiophene-2-sulfonic acid 4-dimethylamino-2-nitrophenylamide] had a Rate constant in experiment [1] of 1.6. Besides, the IC50 in experiment [2] amounted to 1.6 µM. In addition, in experiment [3], the EC50 was determined as 6.4 µM.
Taken in the same sequence, the figures for `CN1CCN(c2ccc(NS(=O)(=O)c3cccs3)cc2)CC1` [Example 7, thiophene-2-sulfonic acid 4-(4-methyl-piperazin-1-yl)phenylamide] were 1.3, 1.9 µM and 5.7 µM.
On the same counts, the results for `O=S(=O)(Nc1ccc(N2CCCCC2)cc1)c1cccc2cccnc12` [Example 4, quinoline-8-sulfonic acid 4-piperidin-1-ylphenylamide] are 1.4, 1.1 µM and 8.7 µM.
Regarding `Cc1noc(C)c1S(=O)(=O)Nc1ccc(N2CCCC2)cc1C(F)(F)F` [Example 2, 3,5-dimethylisoxazole-4-sulfonic acid 4-pyrrolidin-1-yl-2-trifluoromethylphenylamide], the Rate constant in experiment [1] is 1.3. The compound further displayed a concentration for half-maximal inhibition (IC50) in experiment [2] of 2.4 µM. In addition, the EC50 in experiment [3] amounted to 6.6 µM.
Taken in the same sequence, the figures for `O=S(=O)(Nc1ccc(N2CCCC2)cc1)c1cccc2cccnc12` [Example 6, quinoline-8-sulfonic acid 4-pyrrolidin-1-ylphenylamide] were 1.2, 1.5 µM and 5.2 µM.
Turning to `Cc1noc(C)c1S(=O)(=O)Nc1ccc(N2CCCC2)cc1` [Example 1, 3,5-dimethylisoxazole-4-sulfonic acid 4-pyrrolidin-1-ylphenylamide], the Rate constant in experiment [1] came out at 1.1. Further, in experiment [2], the IC50 turned out to be 1.1 µM. In addition, the EC50 in experiment [3] was 4.4 µM.
On the same counts, the results for `Cc1noc(C)c1S(=O)(=O)Nc1ccc(N(C)C)cc1[N+](=O)[O-]` [Example 9, 3,5-dimethylisoxazole-4-sulfonic acid 4-dimethylamino-2-nitrophenylamide] are 1.6, 2 µM and 8.6 µM.
On the same counts, the results for `Cc1noc(C)c1S(=O)(=O)Nc1ccc(N2CCCCC2)cc1` [Example 3, 3,5-dimethylisoxazole-4-sulfonic acid 4-piperidin-1-ylphenylamide] are 1.4, 0.95 µM and 5.3 µM.
On the same counts, the results for `COc1cc(N2CCCC2)ccc1NS(=O)(=O)c1cccs1` [Example 5, thiophene-2-sulfonic acid 2-methoxy-4-pyrrolidin-1-ylphenylamide] are 1.9, 8.1 µM and 5.9 µM.

(Values after patent US6946466B2, “Aromatic sulfonamides as peroxynitrite-rearrangement catalysts” (Schering AG, priority 2003, dated 2005).)
